Test results: PubChem BioAssay AID248 (DTP/NCI, 2004)
“And” between values parts separate entries of the source, which are not always exact repeats. Equal entries are not always repeated. Toxic doses and inconclusive results are not listed.

Test system: L1210 leukemia ip in BDF1 mice, survival T/C
Assay: NCI In Vivo Anticancer Drug Screen. Data for tumor model L1210 Leukemia (intraperitoneal) in B6D2F1 (BDF1) mice
Settings: endpoint: mean survival time, higher = longer survival
How it was run: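 Transplanted-tumor mice were given test agent; controls received vehicle only. Survival readings from the two groups were divided (treated over control).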

[1] = dose: 25.0 mg/kg/injection, schedule: Q04DX002 (ip), vehicle: saline
[2] = dose: 50.0 mg/kg/injection, schedule: Q04DX002 (ip), vehicle: saline
[3] = dose: 100.0 mg/kg/injection, schedule: Q01DX001 (ip), vehicle: Klucel (hydroxypropylcellulose) (HPC)
[4] = dose: 100.0 mg/kg/injection, schedule: Q01DX009 (ip), vehicle: Klucel (hydroxypropylcellulose) (HPC)
[5] = dose: 100.0 mg/kg/injection, schedule: Q04DX003 (ip), vehicle: Klucel (hydroxypropylcellulose) (HPC)
[6] = dose: 200.0 mg/kg/injection, schedule: Q01DX001 (ip), vehicle: Klucel (hydroxypropylcellulose) (HPC)
[7] = dose: 200.0 mg/kg/injection, schedule: Q01DX009 (ip), vehicle: Klucel (hydroxypropylcellulose) (HPC)
[8] = dose: 200.0 mg/kg/injection, schedule: Q04DX003 (ip), vehicle: Klucel (hydroxypropylcellulose) (HPC)
[9] = dose: 400.0 mg/kg/injection, schedule: Q01DX001 (ip), vehicle: Klucel (hydroxypropylcellulose) (HPC)
[10] = dose: 400.0 mg/kg/injection, schedule: Q04DX003 (ip), vehicle: Klucel (hydroxypropylcellulose) (HPC)
[11] = dose: 50.0 mg/kg/injection, schedule: Q01DX001 (ip), vehicle: carboxymethylcellulose (CMC)
[12] = dose: 100.0 mg/kg/injection, schedule: Q01DX001 (ip), vehicle: carboxymethylcellulose (CMC)
[13] = dose: 200.0 mg/kg/injection, schedule: Q01DX001 (ip), vehicle: carboxymethylcellulose (CMC)
[14] = dose: 400.0 mg/kg/injection, schedule: Q01DX001 (ip), vehicle: carboxymethylcellulose (CMC)
[15] = dose: 50.0 mg/kg/injection, schedule: Q01DX009 (ip), vehicle: saline
[16] = dose: 100.0 mg/kg/injection, schedule: Q01DX009 (ip), vehicle: saline
[17] = dose: 200.0 mg/kg/injection, schedule: Q01DX009 (ip), vehicle: saline
[18] = dose: 100.0 mg/kg/injection, schedule: Q01DX001 (ip), vehicle: saline with Tween-80
[19] = dose: 100.0 mg/kg/injection, schedule: Q01DX001 (ip), vehicle: saline
[20] = dose: 200.0 mg/kg/injection, schedule: Q01DX001 (ip), vehicle: saline with Tween-80
[21] = dose: 400.0 mg/kg/injection, schedule: Q01DX001 (ip), vehicle: saline with Tween-80
[22] = dose: 400.0 mg/kg/injection, schedule: Q01DX001 (ip), vehicle: saline
[23] = dose: 200.0 mg/kg/injection, schedule: Q01DX001 (ip), vehicle: saline
[24] = dose: 50.0 mg/kg/injection, schedule: Q01DX009 (ip), vehicle: Klucel (hydroxypropylcellulose) (HPC)

For COc1ccc(C2C(C(=O)N3CCN(C)CC3)C2c2ccc(OC)cc2)cc1 (stereo unspecified), the T/C (dose: 12.5 mg/kg/injection, schedule: Q04DX002 (ip), vehicle: saline) was 102 % of control, the T/C [1] was 102 % of control and the T/C [2] was 102 % of control.
For CCCC(C#N)(c1ccccc1)c1ccccc1, the T/C [3] was 97 % of control, the T/C [4] was 95 % of control and the T/C [5] was 91 % of control. The T/C [6] was 92 % of control, the T/C [7] was 95 % of control and the T/C [8] was 104 % of control. The T/C [9] was 102 % of control and the T/C [10] was 94 % of control.
In the case of COc1ccc(/C=C2\NC(=O)NC2=O)cc1Br, the T/C [4] is reported as 93 % of control, the T/C [7] is reported as 96 % of control and the T/C (dose: 400.0 mg/kg/injection, schedule: Q01DX009 (ip), vehicle: Klucel (hydroxypropylcellulose) (HPC)) is reported as 91 % of control.
CC(O)c1ccc2c(c1)Nc1ccccc1S2 (stereo unspecified) was tested, and the T/C (dose: 100.0 mg/kg/injection, schedule: Q04DX002 (ip), vehicle: saline with Tween-80) was 91 % of control, the T/C (dose: 200.0 mg/kg/injection, schedule: Q04DX002 (ip), vehicle: saline with Tween-80) was 105 % of control and the T/C (dose: 400.0 mg/kg/injection, schedule: Q04DX002 (ip), vehicle: saline with Tween-80) was 91 % of control.
For CCCCCCCC/C=C\CCCCCCCC(=O)OCCCCCC, the T/C (dose: 100.0 mg/kg/injection, schedule: Q01DX009 (ip), vehicle: saline sonified) was 98 % of control, the T/C (dose: 200.0 mg/kg/injection, schedule: Q01DX009 (ip), vehicle: saline sonified) was 102 % of control and the T/C (dose: 400.0 mg/kg/injection, schedule: Q01DX009 (ip), vehicle: saline sonified) was 93 % of control.
With NC(=O)n1ncnc1N the T/C [11] was 110 % of control, the T/C [12] was 101 % of control and the T/C (dose: 100.0 mg/kg/injection, schedule: Q04DX003 (ip), vehicle: saline with Tween-80) was 96 % of control. The T/C [13] was 104 % of control, the T/C (dose: 200.0 mg/kg/injection, schedule: Q04DX003 (ip), vehicle: saline with Tween-80) was 97 % of control and the T/C [14] was 104 % of control. For the same compound, the T/C (dose: 400.0 mg/kg/injection, schedule: Q04DX003 (ip), vehicle: saline with Tween-80) was 105 % of control.
In the case of Nc1c(Cl)ncnc1NC1CC(CO)CC1O (stereo unspecified), the T/C [3] is reported as 96 % of control, the T/C [6] is reported as 93 % of control and the T/C [9] is reported as 96 % of control.
With CC(C)C1CCC(NC(=O)N(CCF)N=O)CC1 (stereo unspecified) the T/C (dose: 9.5 mg/kg/injection, schedule: Q01DX001 (ip), vehicle: other) was 108 % of control, the T/C (dose: 23.0 mg/kg/injection, schedule: Q01DX001 (ip), vehicle: other) was 165 % of control and the T/C (dose: 30.0 mg/kg/injection, schedule: Q01DX001 (ip), vehicle: other) was 187 % of control. The T/C (dose: 38.0 mg/kg/injection, schedule: Q01DX001 (ip), vehicle: other) was 209 % of control, the T/C (dose: 46.0 mg/kg/injection, schedule: Q01DX001 (ip), vehicle: other) was 212 % of control and the T/C (dose: 62.0 mg/kg/injection, schedule: Q01DX001 (ip), vehicle: other) was 312 % of control.
With O=C(O)CC(C(=O)O)=C1CCCCC1 the T/C [15] was 98 % of control, the T/C [16] was 98 % of control and the T/C [17] was 100 % of control.
For Nc1nc2c(ncn2C2OC(COP(=O)(O)O)C(O)C2O)c(=O)[nH]1 (stereo unspecified), the T/C (dose: 100.0 mg/kg/injection, schedule: Q01DX005 (ip), vehicle: saline) was 100 % of control, the T/C [16] was 101 % of control and the T/C (dose: 200.0 mg/kg/injection, schedule: Q01DX005 (ip), vehicle: saline) was 112 % of control. For the same compound, the T/C [17] was 95 % of control.
Cc1cc(-c2ccccc2)c2c(C#N)cn(-c3cccc(Cl)c3)c2n1 was tested, and the T/C [18] was 92 % of control, the T/C [19] was 87 % of control and the T/C [20] was 106 % of control. The T/C [21] was 92 % of control and the T/C [22] was 102 % of control.
In the case of CC/C=C\CCCCCCO, the T/C [12] is reported as 97 % of control and 94 % of control, the T/C [13] is reported as 94 % of control and the T/C [14] is reported as 89 % of control and 97 % of control.
For COC(=O)c1ccc(F)cc1, the T/C [11] was 92 % of control, the T/C [12] was 97 % of control and the T/C [13] was 97 % of control. For the same compound, the T/C [14] was 95 % of control.
COc1ccc2c(c1O)-c1cc(O)cc3c1C(C2)NCC3 (stereo unspecified) was tested, and the T/C (dose: 0.63 mg/kg/injection, schedule: Q04DX003 (ip), vehicle: DMSO) was 105 % of control, the T/C (dose: 1.25 mg/kg/injection, schedule: Q04DX003 (ip), vehicle: DMSO) was 96 % of control and the T/C (dose: 2.5 mg/kg/injection, schedule: Q04DX003 (ip), vehicle: DMSO) was 93 % of control.
In the case of NN=C1C(Cl)=C(Cl)C(Cl)=C1Cl, the T/C [5] is reported as 93 % of control, the T/C [8] is reported as 93 % of control and the T/C [10] is reported as 98 % of control.
CC(C)(C)c1cc(OCC2CO2)ccc1OCC1CO1 (stereo unspecified) was tested, and the T/C [19] was 107 % of control, the T/C [23] was 107 % of control and the T/C [22] was 95 % of control.
For CC(C)(C)c1ccc(CN2CCN(C(c3ccccc3)c3ccc(Cl)cc3)CC2)cc1 (stereo unspecified), the T/C (dose: 12.5 mg/kg/injection, schedule: Q01DX009 (ip), vehicle: Klucel (hydroxypropylcellulose) (HPC)) was 98 % of control, the T/C (dose: 25.0 mg/kg/injection, schedule: Q01DX009 (ip), vehicle: Klucel (hydroxypropylcellulose) (HPC)) was 91 % of control and the T/C (dose: 25.0 mg/kg/injection, schedule: Q04DX003 (ip), vehicle: Klucel (hydroxypropylcellulose) (HPC)) was 93 % of control. The T/C [24] was 91 % of control, the T/C (dose: 50.0 mg/kg/injection, schedule: Q04DX003 (ip), vehicle: Klucel (hydroxypropylcellulose) (HPC)) was 93 % of control and the T/C [5] was 96 % of control. The T/C [8] was 91 % of control.
In the case of CC(CO)CCCC(C)C1CCC2C3CCC4CC(O)CCC4(C)C3CCC12C (stereo unspecified), the T/C [18] is reported as 95 % of control, the T/C [20] is reported as 87 % of control and the T/C [21] is reported as 90 % of control.
With N#CCC(=O)N1CCCCC1 the T/C [11] was 93 % of control, the T/C [12] was 93 % of control and the T/C [13] was 114 % of control. For the same compound, the T/C [14] was 95 % of control.
In the case of C/C(CC(=O)Nc1ccc(Cc2ccc(Cl)cc2)cc1)=N/Nc1ccc([N+](=O)[O-])cc1[N+](=O)[O-], the T/C [19] is reported as 94 % of control and the T/C [23] is reported as 101 % of control.
For O=C(C=C(C(F)(F)F)C(F)(F)F)c1ccc(C(=O)C=C(C(F)(F)F)C(F)(F)F)cc1, the T/C (dose: 12.5 mg/kg/injection, schedule: Q01DX009 (ip), vehicle: saline with Tween-80) was 89 % of control, the T/C (dose: 25.0 mg/kg/injection, schedule: Q01DX009 (ip), vehicle: saline with Tween-80) was 100 % of control and the T/C (dose: 50.0 mg/kg/injection, schedule: Q01DX009 (ip), vehicle: saline with Tween-80) was 94 % of control and 101 % of control.
For O=C1N(c2ccccc2)C(c2ccccc2)SC1(Cc1ccc(Br)cc1)c1ccccc1 (stereo unspecified), the T/C [18] was 100 % of control, the T/C [20] was 98 % of control and the T/C [21] was 94 % of control.
CCN(CC)c1ccc(C(=C(c2ccc(N(CC)CC)cc2)c2ccc(N(CC)CC)cc2)c2ccc(N(CC)CC)cc2)cc1 was tested, and the T/C [24] was 88 % of control, the T/C [4] was 101 % of control and the T/C [5] was 90 % of control. The T/C [7] was 91 % of control and the T/C [8] was 101 % of control.
With CCCCCCC1(C)CCC(=O)O1 (stereo unspecified) the T/C [19] was 94 % of control, the T/C [23] was 94 % of control and the T/C [22] was 100 % of control.
For O=C1OC(=O)C(Br)=C1Br, the T/C [1] was 101 % of control, the T/C [15] was 94 % of control and the T/C [2] was 97 % of control. The T/C [16] was 91 % of control, the T/C (dose: 100.0 mg/kg/injection, schedule: Q04DX002 (ip), vehicle: saline) was 97 % of control and the T/C (dose: 100.0 mg/kg/injection, schedule: Q04DX003 (ip), vehicle: saline) was 95 % of control. For the same compound, the T/C [17] was 107 % of control, the T/C (dose: 200.0 mg/kg/injection, schedule: Q04DX002 (ip), vehicle: saline) was 93 % of control and 103 % of control and the T/C (dose: 200.0 mg/kg/injection, schedule: Q04DX003 (ip), vehicle: saline) was 98 % of control.
For O=C(c1ccccc1)c1nnc(C(=O)c2ccccc2)nn1, the T/C [5] was 102 % of control, the T/C [8] was 100 % of control and the T/C [10] was 93 % of control.
